In experiment [1] the target is T1, p38α wt (Mus musculus, UniProt P47811). Description: Kinase activity assay. The class given is biochemical.
Experiment [2] concerns the target T2, p38α T106Q (Mus musculus, UniProt P47811, T106Q). Description: Kinase activity assay. The class given is biochemical.
The target of experiment [3] is T1, p38α wt. Description: Kinetics: activity assay at varied ATP concentrations. Type of experiment: biochemical. As to conditions: read-out: Km(ATP); activated p38α wt.
Experiment [4] has as its target T2, p38α T106Q. The experiment is described as above. The class given is biochemical. The following applies: read-out: Km(ATP); activated p38α T106Q; rate of reaction maintained linearity as high as 1000 μM ATP.
The target of experiment [5] is Jnk3 wt (Homo sapiens, UniProt P53779). The description is as above. Type of experiment: biochemical. The following applies: read-out: Km(ATP); activated Jnk3 wt.
In experiment [6] the target is Jnk3 M146I (Homo sapiens, UniProt P53779, M146I). The description is as above. The class given is biochemical. As to conditions: read-out: Km(ATP); activated Jnk3 M146I.
The target in experiment [7] is T3, p38δ wt (Mus musculus, UniProt Q9Z1B7).
T3 sequence (Q9Z1B7 1-366): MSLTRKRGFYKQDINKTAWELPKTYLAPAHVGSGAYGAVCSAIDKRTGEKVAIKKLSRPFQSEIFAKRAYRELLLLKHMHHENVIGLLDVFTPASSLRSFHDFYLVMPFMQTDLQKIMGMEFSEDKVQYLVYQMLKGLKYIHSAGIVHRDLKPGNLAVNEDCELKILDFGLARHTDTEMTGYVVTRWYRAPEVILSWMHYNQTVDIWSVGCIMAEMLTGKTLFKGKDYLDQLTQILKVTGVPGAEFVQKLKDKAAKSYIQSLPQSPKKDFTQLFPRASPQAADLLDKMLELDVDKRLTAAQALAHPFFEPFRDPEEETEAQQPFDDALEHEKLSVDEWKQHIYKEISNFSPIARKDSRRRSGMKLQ
The description is as above. Type of experiment: biochemical. As to conditions: read-out: Km(ATP); activated p38δ wt.

Experiment [8] concerns the target T4, p38δ M107T (Mus musculus, UniProt Q9Z1B7, M107T).
T4 sequence (Q9Z1B7 1-366 M107T): T3 sequence (Q9Z1B7 1-366) with M107T
The description is as above. Type of experiment: biochemical. The following applies: read-out: Km(ATP); activated p38δ M107T.

Experiment [9] deals with Erk2 wt (Rattus norvegicus, UniProt P63086). As to conditions: read-out: Km(ATP); activated Erk2 wt.
The target in experiment [10] is Erk2 Q103T (Rattus norvegicus, UniProt P63086, Q103T). As to conditions: read-out: Km(ATP); activated Erk2 Q103T.
For experiment [11], the target named is Erk2 Q103T/C164L (Rattus norvegicus, UniProt P63086, C164L/Q103T). The following applies: read-out: Km(ATP); activated Erk2 Q103T/C164L.
The target in experiment [12] is Erk2 Q103A/C164L (Rattus norvegicus, UniProt P63086, C164L/Q103A). As to conditions: read-out: Km(ATP); activated Erk2 Q103A/C164L.

SMILES strings stand for the structures. Positions count from the first letter of the chain named.

T2 sequence (P47811 whole entry T106Q): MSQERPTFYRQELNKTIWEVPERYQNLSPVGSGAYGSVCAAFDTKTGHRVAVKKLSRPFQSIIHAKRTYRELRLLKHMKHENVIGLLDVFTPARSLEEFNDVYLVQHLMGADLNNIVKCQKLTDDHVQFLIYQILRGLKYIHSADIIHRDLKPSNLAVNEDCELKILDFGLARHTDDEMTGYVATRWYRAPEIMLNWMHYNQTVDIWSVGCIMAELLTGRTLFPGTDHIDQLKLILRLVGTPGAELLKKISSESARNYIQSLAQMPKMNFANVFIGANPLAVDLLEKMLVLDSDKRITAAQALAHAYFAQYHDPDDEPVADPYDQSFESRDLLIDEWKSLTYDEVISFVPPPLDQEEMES
T1 sequence (P47811 whole entry): as the sequence (P47811 whole entry T106Q) above, with Q106T counted along it
Sequence of Jnk3 M146I (P53779 whole entry M146I): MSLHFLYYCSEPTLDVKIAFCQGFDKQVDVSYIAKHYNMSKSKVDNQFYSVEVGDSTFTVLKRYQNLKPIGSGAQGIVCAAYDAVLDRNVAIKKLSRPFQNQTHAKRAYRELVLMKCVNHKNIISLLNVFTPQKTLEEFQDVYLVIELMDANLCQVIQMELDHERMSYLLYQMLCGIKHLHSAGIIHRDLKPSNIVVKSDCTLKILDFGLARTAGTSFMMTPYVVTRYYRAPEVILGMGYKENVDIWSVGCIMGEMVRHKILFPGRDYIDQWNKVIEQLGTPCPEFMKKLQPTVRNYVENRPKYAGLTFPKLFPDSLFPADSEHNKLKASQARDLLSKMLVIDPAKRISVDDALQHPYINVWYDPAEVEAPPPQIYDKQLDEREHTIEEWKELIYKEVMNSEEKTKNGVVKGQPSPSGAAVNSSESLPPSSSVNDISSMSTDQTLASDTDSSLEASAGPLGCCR
Sequence of Jnk3 wt (P53779 whole entry): as the sequence (P53779 whole entry M146I) above, with I146M counted along it

Turning to `Cc1ccc(C(=O)Nc2ccc(CN3CCN(C)CC3)c(C(F)(F)F)c2)cc1C#Cc1cnc2cccnn12` [L1, Iclusig], the Ki came out at 8.1 ± 0.2 nM in [1] and 3700 ± 400 nM in [2].
Consider `Nc1ncnc2c1ncn2[C@@H]1O[C@H](COP(=O)(O)OP(=O)(O)OP(=O)(O)O)[C@@H](O)[C@H]1O` [ATP], for which the Km in [3] was 229 ± 16 µM; in experiment [4], > 1000 µM; in [5] it was 8.3 ± 0.6 µM; in experiment [6], 66 ± 3 µM; in [7], 91 ± 6 µM; in experiment [8] it was 380 ± 40 µM. The Km is 120 ± 10 µM in experiment [9], 83 ± 5 µM in [10], 180 ± 20 µM in experiment [11] and 137 ± 6 µM in experiment [12].

The record behind these values is PMC3742363 (Chemistry & biology, 2013).
